Assay results from patent US6528675B1, “Cyanohydrin ethers and esters as high-sensitivity enzyme substrates” (The Regents of the University of California, priority 2001, dated 2003).

How the values were obtained:
[1] = Substrate stability in buffer, UV detection; assay type: physicochemical
Experimental: (§1) The same two invention substrates and two prior art substrates were tested for stability by both UV detection and fluorescence detection under typical assay conditions.
(§2) Tris maleate buffers (0.1 M) at pH ranging from 6.0 to 9.0 in intervals of 1.0 were used, and substrate was added to 10 μM final concentration. […] The fluorescence samples were read with excitation at 360 nm and emission at 460 nm (for pH 6.0), 465 nm (for pH 7.0), 485 nm (pH 8.0), and 510 nm (pH 9.0) for the methylumbelyl acetate, and with excitation at 330 nm and emission at 460 nm for the two test compounds, in all cases, the readings over 5-minute periods.

[2] = Substrate stability in buffer, fluorescence detection; assay type: physicochemical
Experimental: as §1, §2

[3] = system: esterase from a rat liver microsomal preparation; assay: Specific activity of esterase against substrates; assay type: biochemical, Fisher 344 rats; settings: Rat liver microsome, pH 8.0, 10 μM substrate, fluorescence 330/460 nm
Experimental: (§3) The esterases were porcine esterase purchased from Sigma Chemical Company, St. Louis, Mo., USA, esterase from a rat liver microsomal preparation from 8-week-old Fisher 344 rats, and homogenates of Heliothis virescens from both pyrethroid-susceptible and -resistant strains of tobacco budworm. The substrate in each case was added to a tris-maleate buffer (pH 8.0, 0.1 m) to a final substrate concentration of 10 μM, followed by the addition of the enzyme preparation. The samples were then immediately read by fluorometer at 460 nm for one minute (excitation at 330 nm). The results are listed in Table VI, where “Compound I” denotes the Example 1 substrate, and “Compound II” denotes the Example 4 substrate.

[4] = system: homogenate of Heliothis virescens, pyrethroid-resistant strain; assay: Specific activity of esterase against substrates; assay type: biochemical; settings: H. virescens (resistant), pH 8.0, 10 μM substrate, fluorescence 330/460 nm
Experimental: as §3

[5] = system: homogenate of Heliothis virescens, pyrethroid-susceptible strain; assay: Specific activity of esterase against substrates; assay type: biochemical; settings: H. virescens (susceptible), pH 8.0, 10 μM substrate, fluorescence 330/460 nm
Experimental: as §3

[6] = system: porcine esterase; assay: Specific activity of esterase against substrates; assay type: biochemical; settings: pH 8.0, 10 μM substrate, fluorescence 330/460 nm
Experimental: as §3

[7] = system: cytochrome P450; assay: Substrate response to P450 enzyme activity, rat microsomal enzyme preparation; assay type: biochemical, rats; settings: pH 7.6, 37° C., substrate 10 mM final concentration, average of three tests
From the text: This example compares four cytochrome P450 substrates within the scope of this invention with two cytochrome P450 substrates that are outside the scope of this invention. The four invention substrates were methoxynaphthalen-2-yl acetonitrile (whose synthesis is shown in Example 8 above and which is designated below as Compound III), ethoxynaphthalen-2-yl acetonitrile (synthesis shown in Example 9, Compound IV), benzoxynaphthalen-2-yl acetonitrile (synthesis shown in Example 10, Compound V), and pentoxynaphthalen-2-yl acetonitrile (synthesis shown in Example 11, Compound VI). The substrates outside the scope of the invention were ethoxyresorufin (designated below as Compound A) and pentoxyresorufin (designated below as Compound B). The structures of these last two substrates are as follows: [drawing 56]
All substrates were tested against a microsomal enzyme preparation from 8-week-old Fisher […] rats, by first combining 890 mL of the preparation with 2 mL of phosphate buffer (pH 7.6, 0.2 M) and incubating the mixture at 37° C. for 5 minutes. The substrate (10 mL) was then added (10 mM final concentration), followed by an appropriate signal generating system (100 mL). The samples were immediately read by fluorometer at 460 nm for 1 minute with excitation at 330 nm. The results in terms of specific activity, both with and without the enzyme system, are shown in Table VII, in which each entry represents an average of three tests.

[8] = Change in optical properties, UV absorption of esters and hydrolysis products; assay type: physicochemical; settings: for ε (molar absorptivity): in M-1 cm-1 (unit assumed)
From the text: The substrates representing the invention were (R/S)-acetic acid cyano-(6-methoxynaphthalen-2-yl)-methyl ester (the title compound of Synthesis Example 1 above) and (trans/cis)-3-(2,2-dichlorovinyl)-2,2-dimethylcyclopropanecarboxylic acid cyano-(6-methoxynaphthalen-2-yl)-methyl ester (the title compound of Synthesis Example 2 above).

[9] = Change in optical properties, fluorescence of esters and hydrolysis products; assay type: physicochemical
From the text: The substrates representing the invention were (R/S)-acetic acid cyano-(6-methoxynaphthalen-2-yl)-methyl ester (the title compound of Synthesis Example 1 above) and (trans/cis)-3-(2,2-dichlorovinyl)-2,2-dimethylcyclopropanecarboxylic acid cyano-(6-methoxynaphthalen-2-yl)-methyl ester (the title compound of Synthesis Example 2 above). The substrates of the prior art were methylumbelyl acetate (for detection by fluorescence emission) and 2-naphthacetate (for detection by UV absorption) in assay solutions with different pH values. These prior art substrates were selected because both are widely used and both have aromatic systems similar to the two test compounds.
Again using tris-maleate at pH levels of 6.5, 7.5, and 8.5, fluorescence studies were performed at concentrations of 10 μM, and fluorescence of the starting esters and the hydrolysis products (hydroxycoumarin in the case of methylumbelyl acetate and 6-methoxy-naphthaldehyde in the case of the Example 1 substrate) were determined by conventional instrumentation. The results are listed in Table III in which “MUA” denotes methylumbelyl acetate, “Compound I” denotes the Example 1 substrate, “Ex” denotes the optimal excitation wavelength in nm, “Emmax” denotes the maximal emission wavelength in nm, and “RFU” denotes the relative fluorescence units multiplied by 1,000.

[10] = system: porcine esterase; assay: Sensitivity of substrate to enzyme strength; assay type: biochemical; settings: pH 8.0, 10 μM substrate, 1 unit=1 μmol/min/mL
Experimental: This example illustrates the sensitivity of the substrate to the enzyme, and compares a substrate in accordance with the present invention to two prior art substrates. […] The enzyme was porcine esterase.
A tris-maleate buffer at pH 8.0 (0.1 M) was used. The procedure consisted of adding substrate to a test tube containing 3 mL of buffer to a final substrate concentration of 10 μM, then adding porcine esterase at strengths of 0.06, 0.09. 0.12, 0.18, 0.30, 0.60, 0.9 and 1.2 unit, in which 1 unit=1 μmol/min/mL. […] The enzyme sensitivities for each substrate and detection method were defined as the minimal amount of enzyme per mL required to produce a signal from the substrate that was at least three times greater than the background noise.

[11] = pH 6, tris maleate 0.1 M, 10 μM substrate, no enzyme, 5-minute reading
[12] = pH 7, tris maleate 0.1 M, 10 μM substrate, no enzyme, 5-minute reading
[13] = pH 8, tris maleate 0.1 M, 10 μM substrate, no enzyme, 5-minute reading
[14] = pH 9, tris maleate 0.1 M, 10 μM substrate, no enzyme, 5-minute reading

SMILES | Substrate stability, UV Absorption [1, 11] | Substrate stability, UV Absorption [1, 12] | Substrate stability, UV Absorption [1, 13] | Substrate stability, UV Absorption [1, 14] | Specific Activity [3] | Specific Activity [4] | Specific Activity [5] | Specific Activity [6] | OD (optical density) ([8]; tris-maleate pH 6.5, 10 μM) | ε (molar absorptivity) ([8]; tris-maleate pH 6.5, 10 μM) | OD (optical density) ([8]; tris-maleate pH 7.5, 10 μM) | ε (molar absorptivity) ([8]; tris-maleate pH 7.5, 10 μM) | OD (optical density) ([8]; tris-maleate pH 8.5, 10 μM) | ε (molar absorptivity) ([8]; tris-maleate pH 8.5, 10 μM) | Emmax (maximal emission wavelength) ([9]; tris-maleate pH 6.5, 10 μM) | Ex (optimal excitation wavelength) ([9]; tris-maleate pH 6.5, 10 μM) | RFU (relative fluorescence units multiplied by 1,000) ([9]; tris-maleate pH 6.5, 10 μM) | Emmax (maximal emission wavelength) ([9]; tris-maleate pH 7.5, 10 μM) | Ex (optimal excitation wavelength) ([9]; tris-maleate pH 7.5, 10 μM) | RFU (relative fluorescence units multiplied by 1,000) ([9]; tris-maleate pH 7.5, 10 μM) | also measured
COc1ccc2cc(C(C#N)OC(=O)C3C(C=C(Cl)Cl)C3(C)C)ccc2c1 (mixture of isomers) [Compound II, (trans/cis)-3-(2,2-Dichlorovinyl)-2,2-dimethylcyclopropanecarboxylic Acid Cyano-(6-methoxynaphthalen-2-yl) Methyl Ester] | <0.01 mAbs/min | <0.01 mAbs/min | <0.01 mAbs/min | 0.05 mAbs/min | 270 ± 18 pmol/min/mg protein | 840 ± 22 pmol/min/mg protein | 150 ± 9 pmol/min/mg protein | 142,000 ± 520 pmol/min/mg protein |  |  |  |  |  |  |  |  |  |  |  |  | Substrate stability, Fluorescence [2, 11]: <1 pmol/min; Substrate stability, Fluorescence [2, 12]: <1 pmol/min; Substrate stability, Fluorescence [2, 13]: <1 pmol/min; Substrate stability, Fluorescence [2, 14]: 10 pmol/min; Specific Activity, With Enzyme System ([7]; with enzyme system): 102.4 ± 7.5 pmol/min/mg protein; Specific Activity, Without Enzyme System ([7]; without enzyme system): 33.4 ± 2.0 pmol/min/mg protein
COc1ccc2cc(C(C#N)OC(C)=O)ccc2c1 (racemic) [Compound I, (R/S)-Acetic Acid Cyano-(6-methoxy-naphthalen-2-yl) Methyl Ester] |  |  |  |  | 39,800 ± 600 pmol/min/mg protein | 25,100 ± 425 pmol/min/mg protein | 9,700 ± 220 pmol/min/mg protein | 2,911,000 ± 1,780 pmol/min/mg protein | 0.086 | 3,000 | 0.137 | 3,420 | 0.142 | 3,550 | 410 nm | 360 nm | 241 RFU | 450 nm | 360 nm | 581 RFU | λmax ([8]; tris-maleate pH 6.5, 10 μM): 287 nm; λmax ([8]; tris-maleate pH 7.5, 10 μM): 287 nm; λmax ([8]; tris-maleate pH 8.5, 10 μM): 287 nm; emission peak ([9]; over the three pH levels tested (6.5, 7.5, 8.5)): 366 nm; Emmax (maximal emission wavelength) ([9]; tris-maleate pH 8.5, 10 μM): 450 nm; Ex (optimal excitation wavelength) ([9]; tris-maleate pH 8.5, 10 μM): 360 nm; RFU (relative fluorescence units multiplied by 1,000) ([9]; tris-maleate pH 8.5, 10 μM): 3,708 RFU; Substrate stability, UV Absorption ([1]; 5 min, 10 μM, pH 6): <0.01 mAbs/min; Substrate stability, UV Absorption ([1]; 5 min, 10 μM, pH 7): <0.01 mAbs/min; Substrate stability, UV Absorption ([1]; 5 min, 10 μM, pH 8): <0.01 mAbs/min; Substrate stability, UV Absorption ([1]; 5 min, 10 μM, pH 9): 0.103 mAbs/min; Substrate stability, Fluorescence ([2]; 5 min, 10 μM, pH 6): <1 pmol/min; Substrate stability, Fluorescence ([2]; 5 min, 10 μM, pH 7): 8 pmol/min; Substrate stability, Fluorescence ([2]; 5 min, 10 μM, pH 8): 59 pmol/min; Substrate stability, Fluorescence ([2]; 5 min, 10 μM, pH 9): 138 pmol/min; Sensitivity (minimal amount of enzyme per mL giving a signal at least three times background noise) ([10]; Fluorescence detection): 0.00002; Sensitivity (minimal amount of enzyme per mL giving a signal at least three times background noise) ([10]; UV detection): 0.001; melting point: 84 to 85 °C
CC(=O)Oc1ccc2ccccc2c1 [Compound 2-NA, 2-naphthacetate, reference compound] | <0.01 mAbs/min | 0.05 mAbs/min | 0.44 mAbs/min | 0.555 mAbs/min |  |  |  |  | 0.14 | 3,500 | 0.141 | 3,500 | 0.133 | 3,300 |  |  |  |  |  |  | Sensitivity (minimal amount of enzyme per mL giving a signal at least three times background noise) ([10]; UV detection): 0.002
CC(=O)Oc1ccc2c(C)cc(=O)oc2c1 [MUA, methylumbelyl acetate, reference compound] |  |  |  |  |  |  |  |  |  |  |  |  |  |  | 366 nm | 330 nm | 2,672 RFU | 366 nm | 330 nm | 1,350 RFU | Emmax (maximal emission wavelength) ([9]; tris-maleate pH 8.5, 10 μM): 366 nm; Ex (optimal excitation wavelength) ([9]; tris-maleate pH 8.5, 10 μM): 330 nm; RFU (relative fluorescence units multiplied by 1,000) ([9]; tris-maleate pH 8.5, 10 μM): 1,600 RFU; Sensitivity (minimal amount of enzyme per mL giving a signal at least three times background noise) ([10]; Fluorescence detection): 0.0005
